Measurements published in patent US20250197414A1, “SALT FORM AND CRYSTAL FORM OF VANIN ENZYME INHIBITOR, METHOD FOR PREPARING SAME, AND USE THEREOF” (SHANGHAI MEIYUE BIOTECH DEVELOPMENT CO., LTD., priority 2022, published 2025).
Read-outs that look alike come from different tables or passages of the source.

Legend:
Assay type in all cases: physicochemical
[1] = Stability test of mono-L-tartrate, fumarate and D-malate (related substances by HPLC); settings: for Purity (HPLC): in % (unit assumed); for chemical stability: after accelerated high humidity and high temperature testing
Experimental: The stability of the mono-L-tartrate, fumarate, and D-malate of the compound of formula I obtained in examples 1 to 3 was studied. […]
Detection of related substances: Approximately 5 mg of the sample was weighed into a 40 mL sample vial, dissolved in 10 mL of 50% acetonitrile aqueous solution and diluted to the scale, and 5 μL of the sample was injected.

[2] = Solubility test of compound of formula I and its salts at 37° C.; settings: for Solubility (mg/mL) (1 h) / Solubility (mg/mL) (24 h) / solubility at 1 h / solubility at 24 h: calculated as free base; for solubility (in words): water, pH 7.4 at 37° C.; for solubility at 1 h / solubility at 24 h: thermodynamic from solid; for solubility at 1 h: read-out: Solubility (mg/mL) (1 h); for solubility at 24 h: read-out: Solubility (mg/mL) (24 h)
Experimental: The solubility of the compound of formula I and the L-tartrate, fumarate, and D-malate thereof was studied in water, SGF, FaSSIF, FeSSIF, and pH 7.4 at 37° C.
Experimental method: 30 mg (in water) or 15 mg of the sample was weighed into a 4 mL vial, then 3 mL of the medium to be tested was added thereto, and the resulting mixture was stirred continuously at 37° C. 0.5 mL of the sample was collected at 1 hour and 24 hours, respectively, and centrifuged at 12,000 rpm for 5 minutes. The supernatant was diluted to an appropriate multiple with 50% acetonitrile and its concentration was determined.
Therefore, 13 mg of the fumarate of the compound of formula I was weighed into a 25 mL volumetric flask (approximately 10 mg added to the 25 mL volumetric flask, calculated as free base), dissolved in 50% acetonitrile aqueous solution and diluted to the scale, and two samples were prepared in parallel. STD-1 was diluted to 200 μg/mL, 50 μg/mL, and 10 μg/mL with 50% acetonitrile aqueous solution. 5 μL of the sample was injected, and the standard curve was plotted.

[3] = Hygroscopicity (dynamic vapor sorption classification)
Experimental: Approximately 10 mg of the sample was weighed at 25° C. under a 0% to 95% to 0% relative humidity (RH) cycle for testing the moisture absorption/desorption characteristics.

[4] = Stability study on crystal form A (related substances by HPLC, crystal form by XRPD)
Experimental: Detection method of stability sample related substances: Approximately 5 mg of the sample was weighed, added with 5 mL of 20% methanol, ultrasonicated for a few seconds so that the compound can be completely dissolved, and 5 μL of the sample was injected for testing of related substances.

[5] = pH 7.4 medium, aqueous buffer, pH 7.4, 37° C.
[6] = simulated gastric fluid, SGF, 37° C.

SMILES: O=C(O)CC(O)C(=O)O.O=C(c1cnc(NC2CCc3ncccc32)nc1)N1CCC2(CCOCC2)C1 [D-malate of compound of formula I]
- Total impurities % ([1]; 40° C./75% RH-closed-20 d): 0.09%
- Purity (HPLC) ([1]; 40° C./75% RH-closed-20 d): 99.91
- Total impurities % ([1]; 40° C./75% RH-open-20 d): 0.10%
- Purity (HPLC) ([1]; 40° C./75% RH-open-20 d): 99.90
- Total impurities % ([1]; 60° C.-open-20 d): 0.18%
- Purity (HPLC) ([1]; 60° C.-open-20 d): 99.82
- Total impurities % ([1]; Initial): 0.11%
- Purity (HPLC) ([1]; Initial): 99.89
- chemical stability [1]: good chemical stability
- Sample appearance ([2]; FaSSIF, 37° C.): Clarified solution
- Solubility (mg/mL) (1 h) ([2]; FaSSIF, 37° C.): 5.26 mg/mL
- Solubility (mg/mL) (24 h) ([2]; FaSSIF, 37° C.): 5.36 mg/mL
- Sample appearance ([2]; FeSSIF, 37° C.): Clarified solution
- Solubility (mg/mL) (1 h) ([2]; FeSSIF, 37° C.): 5.31 mg/mL
- Solubility (mg/mL) (24 h) ([2]; FeSSIF, 37° C.): 5.28 mg/mL
- Sample appearance ([2]; SGF, 37° C.): Clarified solution
- Solubility (mg/mL) (1 h) ([2]; SGF, 37° C.): 5.36 mg/mL
- Solubility (mg/mL) (24 h) ([2]; SGF, 37° C.): 5.37 mg/mL
- Final pH ([2]; Water, 37° C.): 3.75
- Sample appearance ([2]; Water, 37° C.): Clarified solution
- Solubility (mg/mL) (1 h) ([2]; Water, 37° C.): 10.60 mg/mL
- Solubility (mg/mL) (24 h) ([2]; Water, 37° C.): 10.76 mg/mL
- Sample appearance ([2]; pH 7.4, 37° C.): Clarified solution
- Solubility (mg/mL) (1 h) ([2]; pH 7.4, 37° C.): 5.54 mg/mL
- Solubility (mg/mL) (24 h) ([2]; pH 7.4, 37° C.): 5.53 mg/mL
- solubility (in words) ([2]; SGF, FaSSIF, FeSSIF): good solubility

SMILES: O=C(c1ccc(N[C@@H]2CCc3ncccc32)nc1)N1CCC2(CCOCC2)C1 [Compound of formula I]
- hygroscopicity [3]: highly hygroscopic
- Final pH ([2]; FaSSIF, 37° C.): 6.38
- Sample appearance ([2]; FaSSIF, 37° C.): Clarified solution
- Final pH ([2]; FeSSIF, 37° C.): 4.99
- Sample appearance ([2]; FeSSIF, 37° C.): Clarified solution
- Final pH ([2]; SGF, 37° C.): 1.37
- Sample appearance ([2]; SGF, 37° C.): Clarified solution
- Final pH ([2]; Water, 37° C.): 7.32
- Sample appearance ([2]; Water, 37° C.): Clarified solution
- Final pH ([2]; pH 7.4, 37° C.): 7.56
- Sample appearance ([2]; pH 7.4, 37° C.): Clarified solution
- solubility at 1 h [2, 5]: 5.11 mg/mL
- solubility at 24 h [2, 5]: 5.2 mg/mL
- solubility at 1 h [2, 6]: 5.23 mg/mL
- solubility at 24 h [2, 6]: 5.39 mg/mL
- solubility at 1 h ([2]; FaSSIF, 37° C.): 5.1 mg/mL
- solubility at 24 h ([2]; FaSSIF, 37° C.): 5.22 mg/mL
- solubility at 1 h ([2]; FeSSIF, 37° C.): 5.46 mg/mL
- solubility at 24 h ([2]; FeSSIF, 37° C.): 5.33 mg/mL
- solubility at 1 h ([2]; Water, 37° C.): 10.6 mg/mL
- solubility at 24 h ([2]; Water, 37° C.): 10.8 mg/mL
- solubility (in words) ([2]; SGF, FaSSIF, FeSSIF): good solubility

SMILES: O=C(c1cnc(N[C@@H]2CCc3ncccc32)nc1)N1CCC2(CCOCC2)C1 [Mono-L-tartrate of compound of formula I]
- Total impurities % ([1]; 40° C./75% RH-closed-2 wks): 0.06%
- Purity (HPLC) ([1]; 40° C./75% RH-closed-2 wks): 99.94
- Total impurities % ([1]; 40° C./75% RH-open-2 wks): 0.10%
- Purity (HPLC) ([1]; 40° C./75% RH-open-2 wks): 99.90
- Total impurities % ([1]; 60° C.-open-2 wks): 0.08%
- Purity (HPLC) ([1]; 60° C.-open-2 wks): 99.92
- Total impurities % ([1]; Initial): 0.06%
- Purity (HPLC) ([1]; Initial): 99.94
- chemical stability [1]: good chemical stability
- Final pH ([2]; FaSSIF, 37° C.): 3.84
- Sample appearance ([2]; FaSSIF, 37° C.): Clarified solution
- Sample appearance ([2]; FeSSIF, 37° C.): Clarified solution
- Sample appearance ([2]; SGF, 37° C.): Clarified solution
- Final pH ([2]; Water, 37° C.): 3.21
- Sample appearance ([2]; Water, 37° C.): Clarified solution
- Sample appearance ([2]; pH 7.4, 37° C.): Clarified solution
- solubility at 1 h [2, 5]: 5.09 mg/mL
- solubility at 24 h [2, 5]: 4.97 mg/mL
- solubility at 1 h [2, 6]: 5.19 mg/mL
- solubility at 24 h [2, 6]: 5.25 mg/mL
- solubility at 1 h ([2]; FaSSIF, 37° C.): 5.08 mg/mL
- solubility at 24 h ([2]; FaSSIF, 37° C.): 5.12 mg/mL
- solubility at 1 h ([2]; FeSSIF, 37° C.): 5.12 mg/mL
- solubility at 24 h ([2]; FeSSIF, 37° C.): 5.02 mg/mL
- solubility at 1 h ([2]; Water, 37° C.): 10.3 mg/mL
- solubility at 24 h ([2]; Water, 37° C.): 10.5 mg/mL
- solubility (in words) ([2]; SGF, FaSSIF, FeSSIF): good solubility

SMILES: O=C(O)C(O)C(O)C(=O)O.O=C(c1cnc(NC2CCc3ncccc32)nc1)N1CCC2(CCOCC2)C1 (centres unmarked) [crystal form A]
- Individual impurities % ([4]; 40° C./75% RH-closed-2 wks): 0.04%
- Purity % ([4]; 40° C./75% RH-closed-2 wks): 99.92%
- Total impurities % ([4]; 40° C./75% RH-closed-2 wks): 0.08%
- Individual impurities % ([4]; 40° C./75% RH-open-2 wks): 0.06%
- Purity % ([4]; 40° C./75% RH-open-2 wks): 99.89%
- Total impurities % ([4]; 40° C./75% RH-open-2 wks): 0.11%
- Individual impurities % ([4]; 60° C.-open-2 wks): 0.06%
- Purity % ([4]; 60° C.-open-2 wks): 99.87%
- Total impurities % ([4]; 60° C.-open-2 wks): 0.13%
- Individual impurities % ([4]; 80% RH-open-2 wks): 0.05%
- Purity % ([4]; 80% RH-open-2 wks): 99.90%
- Total impurities % ([4]; 80% RH-open-2 wks): 0.10%
- Individual impurities % ([4]; 92.5% RH-open-2 wks): 0.06%
- Purity % ([4]; 92.5% RH-open-2 wks): 99.89%
- Total impurities % ([4]; 92.5% RH-open-2 wks): 0.11%
- Individual impurities % ([4]; Initial): 0.04%
- Purity % ([4]; Initial): 99.92%
- Total impurities % ([4]; Initial): 0.08%
- change of crystal form ([4]; at 60° C. under high humidity conditions of 80% RH): has not changed
- crystal form obtained after exposure ([4]; exposed to 92.5% RH for 3 days): crystal form B
- stability (in words) ([4]; high temperature and high humidity conditions): good stability

SMILES: O=C(O)C=CC(=O)O.O=C(c1cnc(NC2CCc3ncccc32)nc1)N1CCC2(CCOCC2)C1 (centres unmarked) [Fumarate of compound of formula I]
- Total impurities % ([1]; 40° C./75% RH-closed-2 wks): 0.30%
- Purity (HPLC) ([1]; 40° C./75% RH-closed-2 wks): 99.70
- Total impurities % ([1]; 40° C./75% RH-open-2 wks): 0.31%
- Purity (HPLC) ([1]; 40° C./75% RH-open-2 wks): 99.69
- Total impurities % ([1]; 60° C.-open-2 wks): 0.32%
- Purity (HPLC) ([1]; 60° C.-open-2 wks): 99.68
- Total impurities % ([1]; Initial): 0.31%
- Purity (HPLC) ([1]; Initial): 99.69
- chemical stability [1]: good chemical stability
- Sample appearance ([2]; FaSSIF, 37° C.): Clarified solution
- Solubility (mg/mL) (1 h) ([2]; FaSSIF, 37° C.): 5.44 mg/mL
- Solubility (mg/mL) (24 h) ([2]; FaSSIF, 37° C.): 5.57 mg/mL
- Sample appearance ([2]; FeSSIF, 37° C.): Clarified solution
- Solubility (mg/mL) (1 h) ([2]; FeSSIF, 37° C.): 5.75 mg/mL
- Solubility (mg/mL) (24 h) ([2]; FeSSIF, 37° C.): 5.63 mg/mL
- Sample appearance ([2]; SGF, 37° C.): Clarified solution
- Solubility (mg/mL) (1 h) ([2]; SGF, 37° C.): 5.37 mg/mL
- Solubility (mg/mL) (24 h) ([2]; SGF, 37° C.): 5.46 mg/mL
- Final pH ([2]; Water, 37° C.): 3.32
- Sample appearance ([2]; Water, 37° C.): Clarified solution
- Solubility (mg/mL) (1 h) ([2]; Water, 37° C.): 11.05 mg/mL
- Solubility (mg/mL) (24 h) ([2]; Water, 37° C.): 11.37 mg/mL
- Sample appearance ([2]; pH 7.4, 37° C.): Clarified solution
- Solubility (mg/mL) (1 h) ([2]; pH 7.4, 37° C.): 5.65 mg/mL
- Solubility (mg/mL) (24 h) ([2]; pH 7.4, 37° C.): 5.61 mg/mL
- solubility (in words) ([2]; SGF, FaSSIF, FeSSIF): good solubility
